Measured values published in patent US12195482B1 (Arcus Biosciences, Inc., priority 2022, dated 2025).

Assays:
[1] = biological target: T1, p-AXL (Homo sapiens, UniProt P30530); assay: Axl phosphorylation inhibition ELISA in HEK293T cells transfected with NanoLuc-tagged AXL; assay type: cell-based; details: 1 h compound incubation, media (OptiMEM)
T1 construct: expressed in transfected cells; host or cells: HEK293T
T1 sequence (P30530 26-894): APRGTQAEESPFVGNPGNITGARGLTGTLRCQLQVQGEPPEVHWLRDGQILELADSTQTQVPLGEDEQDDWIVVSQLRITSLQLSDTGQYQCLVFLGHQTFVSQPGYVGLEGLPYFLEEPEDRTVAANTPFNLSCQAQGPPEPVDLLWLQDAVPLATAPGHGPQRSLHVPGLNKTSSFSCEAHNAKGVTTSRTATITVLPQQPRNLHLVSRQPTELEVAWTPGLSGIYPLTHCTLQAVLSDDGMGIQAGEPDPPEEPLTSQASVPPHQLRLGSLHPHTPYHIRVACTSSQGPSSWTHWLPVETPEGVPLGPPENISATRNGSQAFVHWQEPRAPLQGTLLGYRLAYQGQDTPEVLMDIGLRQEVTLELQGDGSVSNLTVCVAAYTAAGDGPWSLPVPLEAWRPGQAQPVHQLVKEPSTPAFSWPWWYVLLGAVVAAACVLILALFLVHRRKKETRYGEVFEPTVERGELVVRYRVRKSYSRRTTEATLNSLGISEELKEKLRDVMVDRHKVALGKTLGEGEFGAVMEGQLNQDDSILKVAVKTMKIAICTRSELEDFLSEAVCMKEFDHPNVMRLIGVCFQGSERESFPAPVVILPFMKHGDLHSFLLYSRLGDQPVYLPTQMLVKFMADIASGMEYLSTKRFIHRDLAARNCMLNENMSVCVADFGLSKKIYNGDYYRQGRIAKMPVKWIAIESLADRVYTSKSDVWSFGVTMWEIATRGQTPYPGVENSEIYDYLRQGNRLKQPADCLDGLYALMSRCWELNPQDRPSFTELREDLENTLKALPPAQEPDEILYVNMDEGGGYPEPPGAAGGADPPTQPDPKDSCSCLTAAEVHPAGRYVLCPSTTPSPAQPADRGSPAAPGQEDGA
Method: [formula] Measurement of Axl Phosphorylation Inhibition
The dose-response assays were performed in S-Bio PrimeSurface® 3D culture: Ultra-low Attachment Plates: 384 well, U bottom (#MS-9384UZ) containing 400 nL of 22 serial 2-fold compound dilutions using Bravo and Echo. ELISA assay was performed on Pierce™ streptavidin coated high capacity 384-well white plates (Thermofisher Cat #15505). The plates were coated overnight at 4° C. with 50 μl/well of biotinlyated phospho-tyrosine mouse mAb (Cell Signaling Technology, 9417s).
HEK293T cells were grown in DMEM containing 10% FBS, 1% Pen/Strep, 1% G-Max. A day before the assay, cells were transiently transfected with 6.8 μg of NanoLuc-tagged AXL plasmid DNA and 8 μg of carrier DNA using FuGENE® HD Transfection Reagent (Promega) according to manufacturer's instructions. On the day of the assay, transfected cells were harvested and resuspended in OptiMEM. 70,000 cells/well were added to the compounds containing assay plates. After a gentle mix and a short spin, the plates were incubated at 37° C. After 1 h, the cells were lysed followed by a brief centrifugation and 30 min of shaking at 300 rpm. Meanwhile, the antibody coated plates were brought to room temperature and then were washed ten times in PBS with 0.05% Tween 20 (ELISA-wash buffer). 50 μl/well of cell lysate was transferred to the ELISA plates and shaken for 2 hours. After washing again with the ELISA wash buffer, the samples were diluted with 25 μl of PBS. The captured NanoLuc tagged p-AXL was detected using Nano-Glo® Luciferase Assay System (Promega) and manufacturer's instruction. The luminescence signal was measured using Envision plate reader. IC50 values were determined by fitting the data to a standard 4-parameter logistic equation.

[2] = biological target: T2, Axl (Homo sapiens, UniProt P30530); assay: Biochemical potency, HTRF KinEASE-TK kinase assay; design: purchased Invitrogen; details: 5 nM AXL, 700 μM ATP
T2 sequence (P30530 26-894): T1 sequence (P30530 26-894)
Method: Measurement of Biochemical Compound Potency of Axl Inhibitors
Purified recombinant human AXL, TYRO3 and MER proteins were purchased from Invitrogen™. 10 nM AXL, 2 nM TYRO3 or MER were incubated with varying concentrations of compounds in 50 mM HEPES, pH 7.4, 10 mM MgCl2, 0.01% BSA, 1 mM DTT and 2% DMSO in a total volume of 20 μl in a 384-well microplate (Corning™ #3640) at RT for 1 h. The AXL, TYRO3 and MER enzymatic reaction was initiated by transferring 10 μl of enzyme and compound mixture into 10 μl of 1.6 μM TK Substrate-biotin (HTRF® KinEASE-TK kit, Cisbio) and 1400 μM ATP pre-incubated in 50 mM HEPES, pH 7.4, 10 mM MgCl2, 0.01% BSA, 1 mM DTT in a 384-well microplate (Corning™ #3640) at RT, giving the final reaction conditions: 5 nM AXL, 1 nM TYRO3 or MER, 800 nM TK Substrate-biotin and 700 μM ATP in 50 mM HEPES, pH 7.4, 10 mM MgCl2, 0.01% BSA, 1 mM DTT and 1% DMSO with varying concentrations of compounds. Following 2 h incubation at RT, the AXL, TYRO3 and MER enzymatic reaction was stopped by transfer of 10 μl of reaction into 10 μl of detection mix (400 nM Streptavidin-XL665, 200-fold dilution TK Antibody-Cryptate and detection buffer, HTRF® KinEASE-TK kit, Cisbio) in a white 384-well microplate (Perkin Elmer, OptiPlate 384). After 1 h incubation at RT, the plate was put into a plate reader (Evision) to read at 665/620 nm (acceptor/donor) for HTRF. The value of the DMSO blank (MIN inhibition=100% activity) was used as a negative control. The positive control was established by adding 5 μl of enzyme and DMSO mixture into 10 μl of detection mix followed by addition of 5 μl of TK Substrate-biotin and ATP mixture (MAX inhibition=0% activity). To calculate the percent activity, Equation 1 was used. Ratio665/620 is the value at a given compound concentration: […]

| SMILES | IC50 [1] | IC50 [2] |
| --- | --- | --- |
| COC[C@H]1CCN([C@H]2CCc3ccc(-c4cnc5[nH]cc(-c6ccc(-c7nc(C)cnc7C)cc6)c5c4)cc3CC2)C1 [Example 63, 3-(4-{5-[(7S)-7-[(3S)-3-(Methoxymethyl)pyrrolidin-1-yl]-6,7,8,9-tetrahydro-5H-benzo[7]annulen-2-yl]-1H-pyrrolo[2,3-b]pyridin-3-yl}phenyl)-2,5-dimethylpyrazine] | < 100 nM | < 100 nM |
| Cc1ccc(C)c(-c2ccc(-c3c[nH]c4ncc(-c5ccc6c(c5)CC[C@@H](N5C7COCC5C7)CC6)cc34)cc2C)n1 [Example 191, 6-[(7S)-2-{3-[4-(3,6-Dimethylpyridin-2-yl)-3-methylphenyl]-1H-pyrrolo[2,3-b]pyridin-5-yl}-6,7,8,9-tetrahydro-5H-benzo[7]annulen-7-yl]-3-oxa-6-azabicyclo[3.1.1]heptane] | < 100 nM | < 100 nM |
| Cc1cnc(C)c(-c2ccc(-c3n[nH]c4ncc(-c5ccc6c(c5)CC[C@@](C)(N5CCC[C@H]5C)CC6)cc34)nc2)n1 [Example 61, 2,5-Dimethyl-3-(6-{5-[(7S)-7-methyl-7-[(2R)-2-methylpyrrolidin-1-yl]-6,7,8,9-tetrahydro-5H-benzo[7]annulen-2-yl]-1H-pyrazolo[3,4-b]pyridin-3-yl}pyridin-3-yl)pyrazine] | < 100 nM | < 100 nM |
| Cc1cnc(C)c(-c2ccc(-c3c[nH]c4ncc(-c5ccc6c(c5)CC[C@@H](N5C[C@@H]7C[C@H]5CO7)CC6)cc34)cc2)n1 [Example 62, (1S,4S)-5-[(7S)-2-{3-[4-(3,6-Dimethylpyrazin-2-yl)phenyl]-1H-pyrrolo[2,3-b]pyridin-5-yl}-6,7,8,9-tetrahydro-5H-benzo[7]annulen-7-yl]-2-oxa-5-azabicyclo[2.2.1]heptane] | < 100 nM | < 100 nM |
| Cc1cccnc1-c1cccc(-c2c[nH]c3ncc(-c4ccc5c(c4)CC[C@@H](N4C6COCC4C6)CC5)cc23)c1 [Example 82, 6-[(7S)-2-{3-[3-(3-Methylpyridin-2-yl)phenyl]-1H-pyrrolo[2,3-b]pyridin-5-yl}-6,7,8,9-tetrahydro-5H-benzo[7]annulen-7-yl]-3-oxa-6-azabicyclo[3.1.1]heptane] | < 100 nM | < 100 nM |
| Cc1cnc(-c2ccc(-c3n[nH]c4ncc(-c5ccc6c(c5)CC[C@@](C)(N5CCC[C@H]5C)CC6)cc34)cc2)c(C)n1 [Example 188, 3,5-Dimethyl-2-(4-{5-[(7S)-7-methyl-7-[(2R)-2-methylpyrrolidin-1-yl]-6,7,8,9-tetrahydro-5H-benzo[7]annulen-2-yl]-1H-pyrazolo[3,4-b]pyridin-3-yl}phenyl)pyrazine] | < 100 nM | < 100 nM |
| Cc1ccc(-c2ccc(-c3c[nH]c4ncc(-c5ccc6c(c5)CC[C@@H](N5C7COCC5C7)CC6)cc34)cc2)c(C)n1 [Example 73, 6-[(7S)-2-{3-[4-(2,6-Dimethylpyridin-3-yl)phenyl]-1H-pyrrolo[2,3-b]pyridin-5-yl}-6,7,8,9-tetrahydro-5H-benzo[7]annulen-7-yl]-3-oxa-6-azabicyclo[3.1.1]heptane] | 100 to 1000 nM | < 100 nM |
| Cc1cccnc1-c1ccc(-c2c[nH]c3nnc(-c4ccc5c(c4)CC[C@@](C)(N4CCC[C@H]4C)CC5)cc23)cc1 [Example 18, 3-[(7S)-7-Methyl-7-[(2R)-2-methylpyrrolidin-1-yl]-5,6,8,9-tetrahydrobenzo[7]annulen-3-yl]-5-[4-(3-methylpyridin-2-yl)phenyl]-7H-pyrrolo[2,3-c]pyridazine] | < 100 nM | < 100 nM |
| Cc1ccc(C#N)c(-c2ccc(-c3c[nH]c4ncc(-c5ccc6c(c5)CC[C@@H](N5C7COCC5C7)CC6)cc34)cc2)n1 [Example 72, 6-Methyl-2-(4-{5-[(7S)-7-{3-oxa-6-azabicyclo[3.1.1]heptan-6-yl}-6,7,8,9-tetrahydro-5H-benzo[7]annulen-2-yl]-1H-pyrrolo[2,3-b]pyridin-3-yl}phenyl)pyridine-3-carbonitrile] | 100 to 1000 nM | < 100 nM |
| Cc1cc(C)c(-c2ccc(-c3n[nH]c4ncc(-c5ccc6c(c5)CC[C@@H](N5C7COCC5C7)CC6)cc34)cc2)cn1 [Example 195, 6-[(7S)-2-{3-[4-(4,6-Dimethylpyridin-3-yl)phenyl]-1H-pyrazolo[3,4-b]pyridin-5-yl}-6,7,8,9-tetrahydro-5H-benzo[7]annulen-7-yl]-3-oxa-6-azabicyclo[3.1.1]heptane] | 100 to 1000 nM | < 100 nM |
| Cc1cccnc1-c1cnc(-c2c[nH]c3ncc(-c4ccc5c(c4)CC[C@@H](N4C6COCC4C6)CC5)cc23)nc1 [Example 37, 6-[(7S)-3-[3-[5-(3-Methylpyridin-2-yl)pyrimidin-2-yl]-1H-pyrrolo[2,3-b]pyridin-5-yl]-6,7,8,9-tetrahydro-5H-benzo[7]annulen-7-yl]-3-oxa-6-azabicyclo[3.1.1]heptane] | < 100 nM | < 100 nM |
| Cc1ccc[n+]([O-])c1-c1ccc(-c2c[nH]c3ncc(-c4ccc5c(c4)CC[C@@H](N4C6COCC4C6)CC5)cc23)cc1 [Example 16, 3-Methyl-2-(4-{5-[(7S)-7-{3-oxa-6-azabicyclo[3.1.1]heptan-6-yl}-6,7,8,9-tetrahydro-5H-benzo[7]annulen-2-yl]-1H-pyrrolo[2,3-b]pyridin-3-yl}phenyl)pyridin-1-ium-1-olate] | < 100 nM | < 100 nM |
| Cc1cnc(C)c(-c2ccc(-c3c[nH]c4ncc(-c5ccc6c(c5)CC[C@@H](N5C7COCC5C7)CC6)cc34)nc2)n1 [Example 69, 6-[(7S)-2-{3-[5-(3,6-Dimethylpyrazin-2-yl)pyridin-2-yl]-1H-pyrrolo[2,3-b]pyridin-5-yl}-6,7,8,9-tetrahydro-5H-benzo[7]annulen-7-yl]-3-oxa 6-azabicyclo[3.1.1]heptane] | 100 to 1000 nM | < 100 nM |
| Cc1ccc(C)c(-c2ccc(-c3n[nH]c4ncc(-c5ccc6c(c5)CC[C@@H](N5C7COC[C@H]5C7)CC6)cc34)c(F)c2)n1 [Example 143, (1R)-6-[(7S)-2-{3-[4-(3,6-Dimethylpyridin-2-yl)-2-fluorophenyl]-1H-pyrazolo[3,4-b]pyridin-5-yl}-6,7,8,9-tetrahydro-5H-benzo[7]annulen-7-yl]-3-oxa-6-azabicyclo[3.1.1]heptane] | 100 to 1000 nM | < 100 nM |
